Columns and labels:
[1] = molecular target: hPARG (C-terminal His6-tag) (Homo sapiens (Human), UniProt Q86W56); test: PARG Enzymatic Activity Assay (HTRF); type: biochemical; conditions: hPARG 65 pM final, biotinylated-NAD ribosylated PARP1 8 nM final
Experimental: PARG Enzymatic Activity Assay HTRF assay was used to measure the ability of compounds to inhibit the activity of PARG in vitro. C-terminal His6-tag PARG expressed in E. coli was purified and stored at −80° C. in aliquots. Assay measurements were performed with 1×buffer comprising 50 mM Tris pH 7.4, 0.1 mg/mL BSA, 3 mM EDTA, 0.4 mM EGTA, 1 mM DTT, 50 mM KCl and 0.01% Tween 20.
Compounds dissolved in DMSO were plated into a 384-well assay plate (PerkinElmer, Catalog #: 6008280) in duplicate using a dispenser (Labcyte, Echo 665), and tested on a 10-point 4-fold serial dilution. Add 5 L Enzyme mix [hPARG (C-terminal His6-tag, 4.2 μM), 65 pM final] to the test wells. The plates were covered and left to incubate for 60 minutes at RT before the addition of 5 L substrate mix [biotinylated-NAD ribosylated PARP1 (6.1 μM), 8 nM final] to initiate reaction. After incubating 10 minutes at RT, add 2.5 L Streptavidin-Eu cryptate (Cisbio, Catalog #: 610SAKLA) and 2.5 L Mab anti 6HIS-XL665 (Cisbio, Catalog #: 61HISXLA) to the plate, and incubate for 60 minutes at RT. Read on a multimode plate reader (PerkinElmer, Envision 2015) in time-resolved fluorescence (TRF) mode, with excitation at 337 nm and emission at both 620 nm and 665 nm. Average HTRF signal of high control (Wells with 1% DMSO) was calculated and as Vehicle Control (VC). Average HTRF signal of low control (no Enzyme) was calculated and as Positive control (PC).
(§1) IC50 values were determined by fitting the data to the standard 4 parameters with Hill Slope using GraphPad Prism software.

Kuramochi cell line = test: Cell Viability Assay (Cell Titer-Glo, 7 days); type: cell-based; conditions: 168 h, Kuramochi cells, 7 days incubation, read-out: PARG Cell viability (IC50)
Experimental: Cell viability studies were conducted in Kuramochi cell line. Cells were maintained in RPMI (Hyclone, Catalog #: SH3080901B) supplemented with 10% v/v FBS (AusGeneX, Catalog #: FBS500-S), 1% v/v Penicillin Streptomycin (Gibco, Catalog #: 15140122). Cells were seeded in 96-well plates (PerkinElmer, Catalog #: 6005680) at a density of 400 cells/well. Compounds dissolved in DMSO were plated in duplicate using a multichannel pipette, and tested on a 9-point 3-fold serial dilution. Cells were incubated for 7 days in a 37° C. active humidified incubator at 5% CO2. Cell viability was measured using the Cell Titer-Glo reagent (Promega, Catalog #: G7573) as manufacturer's instructions. Luminescence signal was measured with a multimode plate reader (Perkin Elmer, Envision 2105 or BMG, ClarioStar Plus). Average values of DMSO treated wells in a plate was calculated and as high control (HC). Average values of only medium in a plate was calculated and as low control (LC)
as §1

Chain of hPARG (C-terminal His6-tag) (Q86W56 whole entry): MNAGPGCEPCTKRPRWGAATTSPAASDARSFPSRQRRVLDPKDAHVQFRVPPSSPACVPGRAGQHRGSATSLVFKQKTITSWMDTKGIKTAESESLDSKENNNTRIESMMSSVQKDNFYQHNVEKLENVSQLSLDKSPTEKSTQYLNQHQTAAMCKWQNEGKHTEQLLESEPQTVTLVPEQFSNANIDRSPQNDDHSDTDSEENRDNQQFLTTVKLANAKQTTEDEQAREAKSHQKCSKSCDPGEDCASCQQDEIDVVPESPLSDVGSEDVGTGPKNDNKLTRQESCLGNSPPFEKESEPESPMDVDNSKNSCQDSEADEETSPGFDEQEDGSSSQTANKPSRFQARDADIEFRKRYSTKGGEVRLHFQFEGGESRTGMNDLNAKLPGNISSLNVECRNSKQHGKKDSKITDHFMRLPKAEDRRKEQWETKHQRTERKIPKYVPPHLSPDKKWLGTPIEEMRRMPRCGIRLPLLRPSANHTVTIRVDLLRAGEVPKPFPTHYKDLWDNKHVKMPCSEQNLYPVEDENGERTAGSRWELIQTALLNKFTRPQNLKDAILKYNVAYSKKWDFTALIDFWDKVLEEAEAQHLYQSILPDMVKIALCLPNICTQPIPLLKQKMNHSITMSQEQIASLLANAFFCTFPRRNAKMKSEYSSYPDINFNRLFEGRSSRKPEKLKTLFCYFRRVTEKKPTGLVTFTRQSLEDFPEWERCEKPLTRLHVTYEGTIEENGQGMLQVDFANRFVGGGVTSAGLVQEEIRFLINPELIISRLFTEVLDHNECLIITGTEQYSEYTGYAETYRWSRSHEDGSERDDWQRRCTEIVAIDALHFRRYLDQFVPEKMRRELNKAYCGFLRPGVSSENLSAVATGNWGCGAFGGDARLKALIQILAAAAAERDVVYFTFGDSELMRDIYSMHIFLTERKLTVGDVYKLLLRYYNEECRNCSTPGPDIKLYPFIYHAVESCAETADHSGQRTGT

SMILES | IC50 [1] | IC50 (Kuramochi cell line)
N#CC1(NS(=O)(=O)c2ccc3c4c(N5CCN(C(=O)N6CCOCC6)CC5)ncnc4n(-c4nnc(C(F)F)s4)c3c2)CC1 [Example 8, N-(1-Cyanocyclopropyl)-9-(5-(difluoromethyl)-1,3,4-thiadiazol-2-yl)-4-(4-(morpholine-4-carbonyl)piperazin-1-yl)-9H-pyrimido[4,5-b]indole-7-sulfonamide] | < 100 nM | < 100 nM
CO[C@H]1CCN(C(=O)N2CCC(c3ncnc4c3c3ccc(S(=O)(=O)NC5(C#N)CC5)cc3n4-c3nnc(C(F)F)s3)CC2)C1 [Example 134, (S)—N-(1-Cyanocyclopropyl)-9-(5-(difluoromethyl)-1,3,4-thiadiazol-2-yl)-4-(1-(3-methoxypyrrolidine-1-carbonyl)piperidin-4-yl)-9H-pyrimido[4,5-b]indole-7-sulfonamide] | < 100 nM | < 100 nM
CC(C)C(=O)N1CC2(C1)CN(c1ncnc3c1c1ccc(S(=O)(=O)NC4(C#N)CC4)cc1n3-c1nnc(C(F)F)s1)C2 [Example 23, N-(1-Cyanocyclopropyl)-9-[5-(difluoromethyl)-1,3,4-thiadiazol-2-yl]-4-[2-(2-methylpropanoyl)-2,6-diazaspiro[3.3]heptan-6-yl]pyrimido[4,5-b]indole-7-sulfonamide] | < 100 nM | 100 to 1000 nM
CC(C)C(=O)N1C=CC(c2ncnc3c2c2ccc(S(=O)(=O)NC4(C#N)CC4)cc2n3-c2nnc(C(F)F)s2)CC1 (stereo not drawn) [Example 75, N-(1-Cyanocyclopropyl)-9-(5-(difluoromethyl)-1,3,4-thiadiazol-2-yl)-4-(1-isobutyryl-1,2,3,4-tetrahydropyridin-4-yl)-9H-pyrimido[4,5-b]indole-7-sulfonamide] | < 100 nM | < 100 nM
N#CC1(NS(=O)(=O)c2ccc3c4c(N5CCN(C(=O)C6CC6(F)F)CC5)ncnc4n(-c4nnc(C(F)F)s4)c3c2)CC1 (stereo not drawn) [Example 26, N-(1-Cyanocyclopropyl)-4-(4-(2,2-difluorocyclopropane-1-carbonyl)piperazin-1-yl)-9-(5-(difluoromethyl)-1,3,4-thiadiazol-2-yl)-9H-pyrimido[4,5-b]indole-7-sulfonamide] | < 100 nM | < 100 nM
N#CC1(NS(=O)(=O)c2ccc3c4c(C5CCCCO5)ncnc4n(-c4nnc(C(F)F)s4)c3c2)CC1 (stereo not drawn) [Example 83, N-(1-cyanocyclopropyl)-9-(5-(difluoromethyl)-1,3,4-thiadiazol-2-yl)-4-(tetrahydro-2H-pyran-2-yl)-9H-pyrimido[4,5-b]indole-7-sulfonamide] | < 100 nM | 100 to 1000 nM

More lines, main results first:

IC50 [1] | SMILES | IC50 (Kuramochi cell line)
100 to 1000 nM | CN(C)C(=O)N1CC=C(c2ccnc3c2c2ccc(S(=O)(=O)NC4(C)CC4)cc2n3-c2nnc(C(F)F)s2)CC1 [Example 194, 4-(9-(5-(Difluoromethyl)-1,3,4-thiadiazol-2-yl)-7-(N-(1-methylcyclopropyl)sulfamoyl)-9H-pyrido[2,3-b]indol-4-yl)-N,N-dimethyl-3,6-dihydropyridine-1(2H)-carboxamide] | 100 to 1000 nM
< 100 nM | N#CC1(NS(=O)(=O)c2ccc3c4c(N5C[C@H]6COC[C@H]6C5)ncnc4n(-c4nnc(C(F)F)s4)c3c2)CC1 [Example 169, N-(1-Cyanocyclopropyl)-9-(5-(difluoromethyl)-1,3,4-thiadiazol-2-yl)-4-((3aR,6aS)-tetrahydro-1H-furo[3,4-c]pyrrol-5(3H)-yl)-9H-pyrimido[4,5-b]indole-7-sulfonamide] | < 100 nM
< 100 nM | C[C@H]1CN(c2ncnc3c2c2ccc(S(=O)(=O)NC4(C#N)CC4)cc2n3-c2nnc(C(F)F)s2)CCN1CC(F)(F)F [Example 159, (S)-N-(1-cyanocyclopropyl)-9-(5-(difluoromethyl)-1,3,4-thiadiazol-2-yl)-4-(3-methyl-4-(2,2,2-trifluoroethyl)piperazin-1-yl)-9H-pyrimido[4,5-b]indole-7-sulfonamide] | 100 to 1000 nM

Reference: US20250388589A1, “TRICYCLIC HETEROCYCLIC DERIVATIVES, COMPOSITIONS AND USES THEREOF” (Danatlas Pharmaceuticals Co., Ltd., priority 2022, published 2025)
